From patent US20080207521A1, “PEPTIDE LIGAND TO IMPAIR CANCER CELL MIGRATION” (priority 2005, published 2008)

Assays:
Format in all cases: cell-based, human
MDA-MB-468 cells = assay: Migration of MDA-MB-468 cells in modified Boyden chamber; conditions: 18 h; for migration: pure peptide 100 μM
Procedure: The HB2 mammary epithelial cell line, a subclone of the MTSV-1.7 cell line, originating from the laboratory of Dr. J. Taylor-Papadimitriou (11) was used. The HB2 cells were cultured in DMEM supplemented with 10% FBS, 5 U/mi penicillin, 0.5 U/ml streptomycin, 2 mM glutamine, 10 μg/ml bovine insulin and 5 μg/ml hydrocortisone. The human mammary carcinoma cell lines MCF-7 and MDA-MB-468 were cultured in DMEM supplemented with 10% FBS, 5 U/ml penicillin, 0.5 U/ml streptomycin and 2 mM glutamine. The pH-experiments were done in MEM supplemented with 10 mM Tris, 0.5% BSA, 5 U/ml penicillin, 0.5 U/ml streptomycin and 2 mM glutamine. The pH 7.4-medium was further supplemented with 4 mM sodium bicarbonate whereas the pH 6.7-medium was not. All cells were incubated at 37° C. in 95% air and 5% CO2.
(§1) Cell migration analyses were performed in a modified Boyden chamber with a polycarbonate membrane (10 μm thick with a porous diameter of 8.0 μm) separating the two chambers (Transwell®; Costar, Cambridge, Mass.). As indicated in some experiments the membranes were coated with collagen by adding collagen-I (10 μg/ml) diluted in 0.25% acetic acid to the upper chamber for 1 h at 37° C., after which it was washed three times with PBS. Each experiment was initiated by detaching the cells by Versene treatment for 10-20 min at 37° C., washed, and re-suspended as a single cell suspension in serum-free DMEM medium supplemented with 0.5% BSA. Together with the indicated agonist a 0.2 ml cell suspension (containing 25,000 MDA-MB-468 or 50,000 HB2 cells) was then added to the upper chamber of the transwell. The lower chamber was filled with 0.6 ml serum-free but BSA-containing DMEM medium supplemented with 1 ng/ml of the chemoattractant IGF-I. As a control, IGF-I was excluded in some wells in each separate experiment. The cells were allowed to migrate in the Boyden chamber for 18 h at 37° C. in a humidified atmosphere of 95% air and 5% CO2. The experiments were terminated by removing the non-migratory cells with a cotton-tipped applicator from the upper surface of the membranes. The remaining cells on the lower surface that had migrated through the membrane were stained for 20 min with 0.5% crystal violet diluted in 20% methanol/80% water. After washing the membranes the number of stained cells per membrane and well was counted in an inverted microscope. The value from each separate experiment represents the median value of three individual wells.
Peptide-induced effects on MDA-MB-468 tumour cell migration and their content of F-actin. (A) The cells were allowed to migrate for 18 h in the absence or presence of the indicated peptides (100 μM) The data in panel A are expressed as means±SEM of 8 separate experiments, each performed in triplicate. * p<0.05. (B) The cells were allowed to adhere to collagen I-coated cover glasses for 18h in the absence or presence of peptide 175 (100 μM). The cells were then stained with Alexa488-Phalloidin as described in the methods section. The illustrated micrographs are representative of 5 separate experiments.
Effects of peptide 175 modifications on its ability to induce MDA-MB-468 tumour cell adhesion and migration. (A) The cells were allowed to adhere for 60 min to collagen-I coated wells in the absence or presence of peptide 175, three stepwise N-terminal deletion variants of peptide 175 or a formylated version of the tested hexapeptide derived from peptide 175. The amounts of adhesive cells were analyzed as described in the methods and the results are given as means±SEM of 6 separate experiments. (B and C) The cells were allowed to migrate for 18 h in the absence or presence of 1 or 10 μM of peptide 175 (B) or the formylated hexapeptide (C). The data are given as means±SEM of 6 separate experiments, each performed in triplicate. * p<0.05, p<0.01.
Effects of Frz-5 receptor blocking and reduced pH on the abilities of the formylated hexapeptide and Wnt-5a to inhibit tumour cell migration. […]

DDR1 = assay: Collagen-induced DDR1 phosphorylation in Wnt-5a antisense HB2 cells (immunoprecipitation/Western blot); conditions: crude peptide (approximately 65% pure) 100 μM; 90 min on collagen I
Procedure: The phosphorylation status of DDR1 was analyzed as previously described (12), with the following modifications. After serum-depletion for 16 h, the cells were detached with Versene and then allowed to adhere to collagen I for 60 (MDA-MB-468) or 90 min (HB2) at 37° C. The experiments were terminated by lysing both adherent and non-adherent cells with a lysis buffer (50 mM Tris pH 7.4, 1% Triton-X, 5 mM EDTA, 5 mM EGTA, 50 mM NaCl, 10 μg/ml aprotinin, 2.5 mM benzamidine, 1 mM pefabloc, 1 μg/ml leupeptin and 1 mM Na3VO4). For immunoblotting an anti-DDR1 rabbit polyclonal Ab, sc-532 (Santa Cruz Biotech, Santa Cruz, Calif.) was used at a dilution of 1:10,000. The Ab recognizes DDR1b/c, which is essential because collagen only induces phosphorylation of the b or c isoforms of DDR1 in mammary epithelial cells (10).
Effects of crude peptides on collagen-induced DDR1 phosphorylation in Wnt-5a antisense HB2 cells. Single cells were allowed to adhere to collagen I-coated plates in the presence of the indicated crude peptide (100 μM). (A) Experiments performed in the presence of peptides 167-173. (B) Experiments performed in the presence of peptides 175-180. After 90 min the cells were lysed and DDR1 immunoprecipitated. Subsequently, the immunoprecipitates were subjected to Western blot analysis with an anti-phosphotyrosine Ab and then, after stripping, with an anti-DDR1 Ab to ascertain equal loading. The blots shown are representative of 3 separate experiments The diagrams show densitometric analysis of DDR1 phosphorylation, expressed as per cent of control.

[1] = tested on: Wnt-5a antisense HB2 cells; assay: Migration of Wnt-5a antisense HB2 cells in modified Boyden chamber; conditions: 95% pure peptide 100 μM; 18 h
Procedure: as §1
Effects of the selected and pure peptides on the ability of Wnt-5a antisense HB2 cells to adhere and migrate. (A-E) The ability of the cells to adhere to collagen type I-coated wells was analyzed as previously described for FIG. 2 in the absence or presence of different concentrations of the indicated peptide. (F) Effect of the indicated peptides on migration of Wnt-5a antisense HB2 in a transwell migration assay. The cells were allowed to migrate for 18 h in the absence or presence of 100 μM peptide or 0.4 μg/ml of recombinant Wnt5a. The data are given as means±SEM of 6-7 separate experiments, each performed in triplicate. * p<0.05 and ** p<0.01.

Row | Sequence | migration (MDA-MB-468 cells) | DDR1 phosphorylation (DDR1) | migration [1] | motility (migration) (MDA-MB-468 cells; 10 μM)
1 | ADFRKVGDALKEKYD [peptide 169, Wnt-5a aa 242-256] | significantly decreased the migration | significant DDR1 phosphorylation | effectively decreased the migration | –
2 | NKTSEGMDGCEL (Human) [peptide 175, Wnt-5a aa 311-322] | significantly decreased the migration | significant DDR1 phosphorylation | effectively decreased the migration | significantly impaired the motility
3 | SQLAGLSQGQKKL [peptide 171, Wnt-5a aa 55-67; negative control] | no statistically significant effect | no DDR1 phosphorylation | no effect on migration | –
